Results as given in ChEMBL document CHEMBL1201862, “PubChem BioAssay data set” (2004).
Calls of active or inactive are those of the source.

Experiments:
Protein skinhead-1 = target: T1, Protein skinhead-1 (Caenorhabditis elegans, UniProt P34707); format: functional
T1 sequence (P34707 whole entry): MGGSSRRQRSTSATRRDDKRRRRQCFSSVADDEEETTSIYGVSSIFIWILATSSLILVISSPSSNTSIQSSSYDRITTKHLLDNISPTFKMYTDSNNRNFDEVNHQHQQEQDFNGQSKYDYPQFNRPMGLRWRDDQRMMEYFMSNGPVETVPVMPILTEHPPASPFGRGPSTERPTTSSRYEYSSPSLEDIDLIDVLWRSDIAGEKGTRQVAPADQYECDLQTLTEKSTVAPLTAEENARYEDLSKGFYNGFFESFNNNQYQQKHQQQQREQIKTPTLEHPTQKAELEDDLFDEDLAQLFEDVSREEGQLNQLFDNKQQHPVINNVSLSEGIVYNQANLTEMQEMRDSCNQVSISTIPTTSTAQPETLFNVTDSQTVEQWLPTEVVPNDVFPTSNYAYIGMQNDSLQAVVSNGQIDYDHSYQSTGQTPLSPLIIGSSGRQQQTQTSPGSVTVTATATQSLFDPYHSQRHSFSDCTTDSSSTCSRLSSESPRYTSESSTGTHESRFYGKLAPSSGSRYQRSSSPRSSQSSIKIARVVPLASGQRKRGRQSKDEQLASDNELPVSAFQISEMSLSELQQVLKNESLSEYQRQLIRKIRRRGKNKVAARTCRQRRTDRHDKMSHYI

[1] = target: T2, Ubiquitin-conjugating enzyme E2 N (Homo sapiens, UniProt P61088); format: functional;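 also: Dose-response confirmation in a TR-FRET assay detecting UBC13-driven polyubiquitin chain formation, inhibition measured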
T2 sequence (P61088 whole entry): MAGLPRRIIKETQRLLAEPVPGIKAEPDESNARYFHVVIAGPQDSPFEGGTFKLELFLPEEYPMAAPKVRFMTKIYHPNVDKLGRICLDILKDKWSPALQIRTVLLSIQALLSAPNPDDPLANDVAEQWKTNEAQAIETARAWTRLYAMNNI

[2] = Luminescence Cell-Based Dose Response HTS to Identify Activators of Luciferase Translation or Activity in H4 […] Cells. [Related pubchem assays: 1829 (Project Summary), 1814 (Primary HTS)]; format: functional
H4 = assay: Luminescence Cell-Based Dose Response HTS to Identify Activators of 5'UTR Stem-Loop Driven Prion Protein mRNA Translation in H4 Neuroglioblastoma Cells. [Related pubchem assays: 1829 (Project Summary), 1814 (Primary HTS)]; format: functional; conditions: Homo sapiens
[3] = HEp-2 cell cytotoxicity, dose response, cytotoxicity control for RSV inhibitor project, HTS (AID 2410); format: functional; conditions: human respiratory syncytial virus
[4] = target: Luciferin 4-monooxygenase (Photinus pyralis, UniProt P08659); assay: firefly luciferase enzyme inhibitors, dose response, biochemical, luminescence (AID 1891)
[5] = Luminescence Cell-Based Dose Confirmation HTS to Identify Inhibitors of Platelet Dense Granule Release. [Related pubchem assays: 1663 (Primary HTS), 1678 (Summary of Project)]; format: functional
INS1 = assay: beta cell apoptosis inhibitors, cytokine rescue, dose response, luminescence, retest (AID 449756); format: functional, cell-based; conditions: Rattus norvegicus;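 also: cell death triggered by IL-1 beta plus TNF-alpha plus IFN-gamma mixture; protective hits raise ATP signal compared with cytokine alone wells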
[6] = Luminescence Cell-Based Dose Retest to Confirm Inhibitors of Cancer Stem Cells. [Related pubchem assays (depositor defined):AID2717, AID2721]; format: functional; conditions: Homo sapiens
[7] = test system: Streptococcus sp. 'group A'; assay: growth inhibition of control SK(-) GAS strain, dose response, counter-screen for streptokinase expression inhibitor project, luminescence, kanamycin, BacTiterGlo, confirmation (AID 1900); format: functional, organism-based
Streptokinase A = target: T3, Streptokinase A (Streptococcus pyogenes serotype M1, UniProt P10520); assay: S. pyogenes streptokinase expression inhibitors, potency, dose response, plasminogen activation absorbance, OD405 (AID 1914); format: functional, Streptococcus pyogenes M1 GAS;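 also: secreted streptokinase activity via plasminogen activation per viability signal from cell pellet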
T3 sequence (P10520 whole entry): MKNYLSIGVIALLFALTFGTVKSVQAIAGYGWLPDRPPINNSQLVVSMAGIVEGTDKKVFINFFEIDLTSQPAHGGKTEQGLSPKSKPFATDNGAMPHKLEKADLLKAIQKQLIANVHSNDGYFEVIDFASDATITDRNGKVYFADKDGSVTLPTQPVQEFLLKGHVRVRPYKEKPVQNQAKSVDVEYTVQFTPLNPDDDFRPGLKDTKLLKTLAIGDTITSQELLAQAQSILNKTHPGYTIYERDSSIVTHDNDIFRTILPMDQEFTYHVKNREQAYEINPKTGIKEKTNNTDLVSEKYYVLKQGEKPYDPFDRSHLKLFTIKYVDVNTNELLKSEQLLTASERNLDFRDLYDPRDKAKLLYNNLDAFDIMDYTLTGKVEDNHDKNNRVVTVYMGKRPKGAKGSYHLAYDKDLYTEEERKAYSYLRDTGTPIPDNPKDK

Streptococcus = assay: Group A Streptococcus viability loss, dose response, counter-screen for streptokinase expression inhibitor project, luminescence, BacTiterGlo (AID 1915); format: functional, organism-based; conditions: read-out: EC50;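 also: potency for reduction of bacterial viability or growth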
Protein RecA = target: T4, Protein RecA (Mycobacterium tuberculosis, UniProt P9WHJ3); assay: Fluorescence Cell-Free Homogeneous Dose Retest to Identify Inhibitors of RecA-Intein Splicing Activity. [Related pubchem assays (depositor defined):AID2097, AID2223, AID489010, AID492950]; format: functional
T4 sequence (P9WHJ3 whole entry): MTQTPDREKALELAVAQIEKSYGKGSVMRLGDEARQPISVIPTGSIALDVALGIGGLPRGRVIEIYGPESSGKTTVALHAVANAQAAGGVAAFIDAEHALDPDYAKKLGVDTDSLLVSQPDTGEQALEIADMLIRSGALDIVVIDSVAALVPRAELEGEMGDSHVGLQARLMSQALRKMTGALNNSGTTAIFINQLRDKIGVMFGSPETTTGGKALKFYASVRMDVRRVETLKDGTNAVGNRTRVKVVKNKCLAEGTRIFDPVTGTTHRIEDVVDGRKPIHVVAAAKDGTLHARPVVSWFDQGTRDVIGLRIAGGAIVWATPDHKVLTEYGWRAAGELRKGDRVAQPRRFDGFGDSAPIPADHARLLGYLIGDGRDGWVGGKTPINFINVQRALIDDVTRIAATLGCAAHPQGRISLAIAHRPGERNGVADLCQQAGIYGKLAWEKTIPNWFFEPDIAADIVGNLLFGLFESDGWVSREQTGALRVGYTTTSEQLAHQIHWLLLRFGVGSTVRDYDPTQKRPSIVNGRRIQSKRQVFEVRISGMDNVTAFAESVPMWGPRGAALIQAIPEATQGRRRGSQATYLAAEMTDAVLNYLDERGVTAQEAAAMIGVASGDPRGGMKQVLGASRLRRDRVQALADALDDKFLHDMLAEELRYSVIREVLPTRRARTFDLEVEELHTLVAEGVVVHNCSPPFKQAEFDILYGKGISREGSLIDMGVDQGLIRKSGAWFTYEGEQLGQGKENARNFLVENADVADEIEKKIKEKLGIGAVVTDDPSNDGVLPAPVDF

[8] = ZM109 Env clade C HIV-1 fusion inhibitors, dose response, HeLa effector, CEM target cells, luciferase, cherry-pick (AID 652058); format: functional, cell-based
[9] = inhibitors of clade B AD8 Env fusion, dose response, cell-based, cherry-pick (AID 652062); format: functional;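 also: luciferase signal from cell-cell fusion driven by HIV-1 clade B AD8 Env; potency is for inhibitors of fusion seen as a drop in luminescence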
Cytochrome P450 2C19 = Cytochrome P450 2C19 (Homo sapiens, UniProt P33261); assay: Cytochrome panel assay with activity outcomes. Panel member name: p450-cyp2c19 Compounds with AC50 equal or less than 10 uM are considered active; format: functional; conditions: read-out: AC50
Cytochrome P450 3A4 = Cytochrome P450 3A4 (Homo sapiens, UniProt P08684);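 also: CYP3A4 tested as one member of a cytochrome P450 panel screen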
[10] = Shn3 3'UTR reporter inhibitors, dose response, cell-based, Clone20 osteoblasts, firefly luciferase, cherry-picked (AID 624132); format: functional;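 also: firefly luciferase luminescence from reporter carrying the Shn3 3'UTR in osteoblasts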
[11] = control 3'UTR Renilla luciferase suppression, dose response, counter-screen for Shn3 inhibitor project, cell-based, Clone20-Shn3RL, cherry-picked (AID 624133); format: functional
[12] = inhibitors of HIV Env-driven cell fusion, dose response, cherry-pick (AID 652057); format: functional, cell-based
[13] = P. falciparum Dd2 growth inhibitors, dose response, SYBR Green, cherry-picked samples (AID 1159567); format: functional, cell-based

Sequence of Luciferin 4-monooxygenase (P08659 whole entry): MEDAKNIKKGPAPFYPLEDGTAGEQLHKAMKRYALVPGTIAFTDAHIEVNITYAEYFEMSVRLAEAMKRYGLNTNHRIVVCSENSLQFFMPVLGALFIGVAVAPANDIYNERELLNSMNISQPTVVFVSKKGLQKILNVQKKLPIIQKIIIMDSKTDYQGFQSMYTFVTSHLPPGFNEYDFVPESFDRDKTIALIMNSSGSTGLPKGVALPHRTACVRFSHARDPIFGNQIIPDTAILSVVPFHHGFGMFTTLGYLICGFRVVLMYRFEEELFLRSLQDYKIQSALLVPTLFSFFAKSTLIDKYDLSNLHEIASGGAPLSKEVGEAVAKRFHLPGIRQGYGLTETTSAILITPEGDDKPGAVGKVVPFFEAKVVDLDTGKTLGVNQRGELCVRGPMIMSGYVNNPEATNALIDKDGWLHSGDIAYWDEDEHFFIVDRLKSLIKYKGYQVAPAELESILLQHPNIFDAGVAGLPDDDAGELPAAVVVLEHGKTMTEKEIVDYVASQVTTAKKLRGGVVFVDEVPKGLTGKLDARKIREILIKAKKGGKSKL
Sequence of Cytochrome P450 2C19 (P33261 whole entry): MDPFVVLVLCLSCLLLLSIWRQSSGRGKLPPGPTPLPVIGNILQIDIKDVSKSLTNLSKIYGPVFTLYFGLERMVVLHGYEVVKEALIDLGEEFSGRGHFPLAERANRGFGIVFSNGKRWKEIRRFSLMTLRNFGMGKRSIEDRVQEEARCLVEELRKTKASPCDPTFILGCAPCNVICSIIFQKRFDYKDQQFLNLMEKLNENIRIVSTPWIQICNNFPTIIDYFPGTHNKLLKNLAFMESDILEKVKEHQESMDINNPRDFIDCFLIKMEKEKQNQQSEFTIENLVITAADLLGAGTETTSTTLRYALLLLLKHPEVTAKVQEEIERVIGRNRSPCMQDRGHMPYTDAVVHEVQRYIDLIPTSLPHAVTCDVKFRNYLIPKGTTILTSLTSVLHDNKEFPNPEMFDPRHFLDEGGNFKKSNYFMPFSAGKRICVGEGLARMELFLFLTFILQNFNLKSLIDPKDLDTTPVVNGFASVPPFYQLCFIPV
Sequence of Cytochrome P450 3A4 (P08684 whole entry): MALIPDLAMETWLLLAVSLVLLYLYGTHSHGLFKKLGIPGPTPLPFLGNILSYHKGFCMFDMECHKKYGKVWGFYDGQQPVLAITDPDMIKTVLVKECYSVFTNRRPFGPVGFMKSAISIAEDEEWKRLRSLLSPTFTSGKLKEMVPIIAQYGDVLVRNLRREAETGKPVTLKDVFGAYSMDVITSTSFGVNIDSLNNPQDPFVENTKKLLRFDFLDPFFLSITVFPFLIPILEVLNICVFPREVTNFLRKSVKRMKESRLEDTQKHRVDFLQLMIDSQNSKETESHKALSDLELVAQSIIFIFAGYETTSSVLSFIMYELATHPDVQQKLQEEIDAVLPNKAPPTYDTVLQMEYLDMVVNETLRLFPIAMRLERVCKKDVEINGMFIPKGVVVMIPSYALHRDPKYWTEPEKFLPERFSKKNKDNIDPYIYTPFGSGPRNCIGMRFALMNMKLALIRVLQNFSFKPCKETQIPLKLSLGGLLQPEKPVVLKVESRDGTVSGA

CC(=O)Nc1cccc(OCC(=O)NS(=O)(=O)c2ccc(Cl)cc2)c1
IC50 (Protein skinhead-1): > 100 µM (inactive)

C=CCN1C(=O)C2(C(C(=O)OCC)=C(N)Oc3ccccc32)C2=C1CCCC2=O (configuration not stated)
IC50 (Protein skinhead-1): > 100 µM (inactive)

NC1=NC[C@@H](Cc2ccc(O)cc2)N1CCc1cc(C(F)(F)F)cc(C(F)(F)F)c1
IC50 [1]: > 20 µM (inactive)

Nc1cc(-c2nc3ncccc3o2)ccc1Cl
EC50 [2]: 4.25 µM (active)
EC50 (H4): > 120 µM (not active)

Nc1c2c(nc3ccc(Br)cc13)N(Cc1ccccc1)CC2
CC50 [3]: 9.17 µM (active)

Cc1nn(C)c(Cl)c1CN1CCN(C2CCCCC2)C(CCO)C1 (configuration not stated)
EC50 [4]: > 112 µM (not active)
EC50 [5]: > 112 µM (not active)

COc1ccc(-c2cc(-c3cccs3)nc(OC)c2C#N)cc1OC
IC50 [1]: > 20 µM (inactive)

O=C(CCc1nc(O)c2ccccc2n1)NCCN1C(=O)S/C(=C\c2ccccc2Cl)C1=O
CC50 [3]: 23.9 µM (active)

COc1ccc(C(CCN2CCCC2)c2c(OC)cc(OC)c3c(-c4ccccc4)cc(=O)oc23)cc1 (configuration not stated)
IC50 [1]: > 20 µM (inactive)

Cc1ccc(CSc2nnc(-c3ccco3)o2)cc1
IC50 (Protein skinhead-1): 22 µM (active)

CC(=O)c1ccc(NC(S)=NCc2cccnc2)cc1
AC50 (INS1): 5.94 µM (active)

Cc1ccc(C2CC(c3cccc(Br)c3)n3nc(N)nc3N2)cc1 (configuration not stated)
AC50 (INS1): 34.1 µM (active)

CC(=O)C1=C(C)NC(SCC(=O)c2ccc(Cl)cc2)=C(C#N)C1CC(C)C (configuration not stated)
CC50 [3]: 23.4 µM (active)

CC1CCN(C(=O)C2CCN(CC(C)c3ccccc3)CC2)CC1 (configuration not stated)
EC50 [4]: > 112 µM (not active)
EC50 [5]: > 112 µM (not active)

COc1ccccc1-c1oc2ccccc2c1C#CC1(N)CCCCC1
AC50 [6]: 5.52 µM (active)
IC50 [1]: > 20 µM (inactive)

CCCCOC(=O)c1ccc(NC(=O)CN2C(=O)NC3(CCCCCC3)C2=O)cc1
CC50 [3]: 31.9 µM (active)

C=CCn1c(N)c(C(=O)Nc2cccc(C)c2)c2nc3ccccc3nc21
CC50 [3]: 11.4 µM (active)
EC50 [7]: 2.97 µM (active)
EC50 (Streptokinase A): > 150 µM (not active)
EC50 (Streptococcus): 8.54 µM (active)
EC50 (Protein RecA): 13.3 µM (active)

CCc1ccc(NC2=NC(=O)/C(=C/c3cc(OC)c(OC)c(OC)c3)S2)cc1
CC50 [3]: 21.2 µM (active)

Cc1cccc(C)c1NC(=O)N1CCN(c2nc3ccccc3s2)CC1
AC50 [8]: 1.05 µM (active)
AC50 [9]: 10 µM (active)

O=c1c2ccccc2ccc2ccccc12
IC50 (Protein skinhead-1): 21.3 µM (active)

Cc1ccc(S(=O)(=O)N=C(N)Nc2nc(C)c3ccc(C)cc3n2)cc1
CC50 [3]: > 50 µM (active)

COc1cccc(NC(=O)c2cccs2)c1
EC50 [4]: > 112 µM (not active)
EC50 [5]: > 112 µM (not active)

O=C(/C=C/c1ccco1)NCCCN1CCN(CCCNC(=O)/C=C/c2ccco2)CC1
EC50 [4]: > 112 µM (not active)
EC50 [5]: > 112 µM (not active)

O=C(C1CC(c2ccc(F)cc2)=NO1)N1CCCCC1 (configuration not stated)
EC50 [2]: 5.56 µM (active)
EC50 (H4): 33.4 µM (active)

Cc1cc(C)n(Cc2ccc(F)cc2)c(=O)c1C#N
EC50 [4]: > 112 µM (not active)
EC50 [5]: 15.7 µM (active)

O=C(Nc1ccc(Br)cc1)c1ccc(CSC2=NCCS2)cc1
EC50 [2]: 3.81 µM (active)
EC50 (H4): 99.7 µM (active)
AC50 (Cytochrome P450 2C19): 11.2 µM (inconclusive)
AC50 (Cytochrome P450 3A4): 3.55 µM (inconclusive)

O=C(CSc1nnc(COc2ccc(Cl)cc2)o1)NC1CC2CCC1C2 (configuration not stated)
IC50 (Protein skinhead-1): > 100 µM (inactive)

COc1ccc2cc(N3CCCC3=O)ccc2c1
IC50 (Protein skinhead-1): > 100 µM (inactive)

c1ccc2c(C[C@@H]3CNCCN3CCC34CC5CC(CC(C5)C3)C4)cccc2c1
IC50 [1]: > 20 µM (inactive)

C=C1CCC[C@]2(C)C[C@H]3OC(=O)C(CNCCN(C)C)[C@H]3CC12 (some centres not stated)
IC50 (Protein skinhead-1): > 100 µM (inactive)

Cc1sc2ncnc(N3CCN(S(=O)(=O)c4ccccc4)CC3)c2c1C
AC50 (INS1): 4.3 µM (active)
AC50 [10]: 2.3 µM (active)
AC50 [11]: 3.43 µM (active)

CO[C@H]1CN(C)C(=O)c2ccc(NC(=O)C3CCC3)cc2OC[C@H](C)N(CC2CCCCC2)C[C@@H]1C
AC50 [12]: 0.592 µM (active)
AC50 [8]: 1.25 µM (active)
AC50 [9]: 1.83 µM (active)

O=C(CCN1CCCCCC1)Nc1ccccc1F
IC50 (Protein skinhead-1): > 100 µM (inactive)

C[C@H](CO)N1C[C@H](C)[C@H](CN(C)S(=O)(=O)c2cccs2)Oc2ccc(NC(=O)Nc3ccccc3)cc2CC1=O
AC50 [12]: 0.395 µM (active)
AC50 [8]: 0.579 µM (active)
AC50 [9]: 1.34 µM (active)

O=C(c1ccccc1F)N1C[C@H]2[C@@H](c3ccccc31)[C@@H](CO)N2C(=O)c1ccc(F)cc1
AC50 [13]: 35.2 µM (active)

Cc1cc(N2CCOCC2)nc2ccc(NC(=O)C3CCC(C)CC3)cc12 (configuration not stated)
IC50 (Protein skinhead-1): > 100 µM (inactive)

CO[C@@H]1CN(C)C(=O)c2ccc(NC(=O)c3ccc(F)cc3)cc2OC[C@@H](C)N(C(=O)c2ccc(F)cc2)C[C@@H]1C
AC50 [13]: 4.29 µM (active)

CCCN(C)C[C@H]1Oc2ncc(C#Cc3ccccc3OC)cc2C(=O)N([C@H](C)CO)C[C@H]1C
AC50 [13]: 3.28 µM (active)

CCCNC(=O)N1[C@H](CO)[C@H](c2ccc(-c3ccc(C#N)cc3)cc2)[C@@H]1CNC
AC50 [13]: 11.5 µM (active)

C/C=C/c1ccc2c(c1)[C@H]1[C@H](CCN1S(=O)(=O)c1cccc(F)c1)[C@@H](CO)N2
AC50 [13]: 4.13 µM (active)
